The results in this text go back to US9388176B2, “Method of treating conditiions with kinase inhibitors” (Allergan, Inc., priority 2012, dated 2016).

By IC50 is commonly meant the midpoint of a concentration-inhibition curve. A high value points to a need for much substance.

A value given as a limit tells only on which side of the number the result lay.

Assay [1] addresses PDGFRβ kinase, purified cytoplasmic domain PDGFR-β protein (Homo sapiens (Human), UniProt P09619). In words: PDGFRβ Kinase Assay. The assay is classed as biochemical. To be noted: 36 μM ATP, poly-Glu-Tyr (4:1) substrate, 60 minute incubation at 30° C., ELISA read at 492 nm. How it is done:
Biochemical PDGFRβ kinase assays were performed in 96 well microliter plates that were coated overnight with 75 μg of poly-Glu-Tyr (4:1) in 10 mM Phosphate Buffered Saline (PBS), pH 7.4. The coated plates were washed with 2 mls per well PBS+0.05% Tween-20 (PBS-T), blocked by incubation with PBS containing 1% BSA, then washed with 2 mls per well PBS-T prior to starting the reaction. Reactions were carried out in 100 μL reaction volumes containing 36 μM ATP in kinase buffer (50 mM Hepes buffer pH 7.4, 20 mM MgCl2, 0.1 mM MnCl2 and 0.2 mM Na3VO4). Test compounds were reconstituted in 100% DMSO and added to the reaction to give a final DMSO concentration of 5%. Reactions were initiated by the addition 20 ul per well of kinase buffer containing 200-300 ng purified cytoplasmic domain PDGFR-β protein (Millipore). Following a 60 minute incubation at 30° C., the reactions were washed 2 mls per well PBS-T. 100 μl of a monoclonal anti-phosphotyrosine antibody-peroxidase conjugate diluted 1:10,000 in PBS-T was added to the wells for 30 minutes. Following a 2 mls per well wash with PBS-Tween-20, 100 μl of 0-Phenylenediamine Dihydrochloride in phosphate-citrate buffer, containing urea hydrogen peroxide, was added to the wells for 7-10 minutes as a colorimetric substrate for the peroxidase. The reaction was terminated by the addition of 100 μl of 2.5N H2SO4 to each well and read using a microplate ELISA reader set at 492 nm. IC50 values for compound inhibition were calculated directly from graphs of optical density (arbitrary units) versus compound concentration following subtraction of blank values. […]
(ELISA stands for enzyme-linked immunosorbent assay.)

In assay [2] the target is VEGFR2 (KDR) kinase, purified cytoplasmic domain KDR protein (Homo sapiens (Human), UniProt P35968). The experiment in a line: VEGFR2 Kinase Assay. The assay is classed as biochemical. To be noted: 2.7 μM ATP, poly-Glu-Tyr (4:1) substrate, 15 minute incubation at 30° C., ELISA read at 492 nm. The protocol:
Biochemical KDR kinase assays were performed in 96 well microliter plates that were coated overnight with 75 μg/well of poly-Glu-Tyr (4:1) in 10 mM Phosphate Buffered Saline (PBS), pH 7.4. The coated plates were washed with 2 mls per well PBS+0.05% Tween-20 (PBS-T), blocked by incubation with PBS containing 1% BSA, then washed with 2 mls per well PBS-T prior to starting the reaction. […] Reactions were initiated by the addition 20 ul per well of kinase buffer containing 200-300 ng purified cytoplasmic domain KDR protein (BPS Bioscience, San Diego, Calif.). Following a 15 minute incubation at 30° C., the reactions were washed 2 mls per well PBS-T. 100 μl of a monoclonal anti-phosphotyrosine antibody-peroxidase conjugate diluted 1:10,000 in PBS-T was added to the wells for 30 minutes. Following a 2 mls per well wash with PBS-Tween-20, 100 μl of O-Phenylenediamine Dihydrochloride in phosphate-citrate buffer, containing urea hydrogen peroxide, was added to the wells for 7-10 minutes as a colorimetric substrate for the peroxidase. […] IC50 values for compound inhibition were calculated directly from graphs of optical density (arbitrary units) versus compound concentration following subtraction of blank values.

Chain of VEGFR2 (KDR) kinase, purified cytoplasmic domain KDR protein (P35968 786-1356): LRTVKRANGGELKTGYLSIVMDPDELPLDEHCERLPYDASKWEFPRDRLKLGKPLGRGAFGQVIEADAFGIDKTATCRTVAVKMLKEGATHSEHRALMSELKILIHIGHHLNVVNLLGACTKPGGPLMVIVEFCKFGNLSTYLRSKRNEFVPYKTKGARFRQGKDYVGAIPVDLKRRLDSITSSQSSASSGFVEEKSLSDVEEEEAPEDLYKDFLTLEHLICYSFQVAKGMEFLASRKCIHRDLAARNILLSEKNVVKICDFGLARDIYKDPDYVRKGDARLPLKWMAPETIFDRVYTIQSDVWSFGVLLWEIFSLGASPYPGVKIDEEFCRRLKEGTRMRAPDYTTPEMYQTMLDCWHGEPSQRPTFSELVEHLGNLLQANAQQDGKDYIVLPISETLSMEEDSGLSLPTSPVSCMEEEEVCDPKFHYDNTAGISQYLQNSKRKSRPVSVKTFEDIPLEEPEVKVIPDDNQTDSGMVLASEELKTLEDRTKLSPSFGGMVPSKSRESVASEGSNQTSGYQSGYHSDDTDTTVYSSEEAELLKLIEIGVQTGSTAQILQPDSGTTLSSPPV
Chain of PDGFRβ kinase, purified cytoplasmic domain PDGFR-β protein (P09619 554-1106): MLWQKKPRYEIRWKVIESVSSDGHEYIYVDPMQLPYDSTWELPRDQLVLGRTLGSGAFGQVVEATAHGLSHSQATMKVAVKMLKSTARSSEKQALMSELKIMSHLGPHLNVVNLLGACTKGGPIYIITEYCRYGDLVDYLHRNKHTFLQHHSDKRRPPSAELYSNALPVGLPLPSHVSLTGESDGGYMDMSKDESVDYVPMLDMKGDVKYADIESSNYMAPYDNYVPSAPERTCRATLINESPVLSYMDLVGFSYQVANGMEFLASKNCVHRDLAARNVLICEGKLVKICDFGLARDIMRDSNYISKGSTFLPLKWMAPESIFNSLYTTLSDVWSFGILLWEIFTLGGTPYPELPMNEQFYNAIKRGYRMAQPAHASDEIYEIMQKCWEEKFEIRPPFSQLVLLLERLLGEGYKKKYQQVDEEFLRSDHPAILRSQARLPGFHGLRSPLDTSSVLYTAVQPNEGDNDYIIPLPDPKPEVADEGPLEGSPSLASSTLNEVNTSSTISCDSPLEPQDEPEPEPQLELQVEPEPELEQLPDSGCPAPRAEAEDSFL

The compound `CCCc1ccc(NC(=O)c2cccc(N3CCc4nc(N)ncc4C3)c2)cc1` [Example 10, 3-(2-amino-7,8-dihydropyrido[4,3-d]pyrimidin-6(5H)-yl)-N-(4-propylphenyl)benzamide] came in with a concentration for half-maximal inhibition (IC50) in assay [1] of 32 nM. As to “4-(2-Methylsulfanyl-5,7-dihydro-pyrrolo[3,4-d]pyrimidin-6-yl)-pyridine-2-carboxylic acid (3-trifluoromethyl-phenyl)-amide [Example 126]”, in assay [2], the half-maximal inhibitory concentration (IC50) is > 10000 nM. `CCc1ccc(NC(=O)c2cccc(N3CCc4nc(N)ncc4C3)c2)cc1` [Example 8, 3-(2-amino-7,8-dihydropyrido[4,3-d]pyrimidin-6(5H)-yl)-N-(4-ethylphenyl)benzamide] returned an IC50 in assay [1] of 134 nM.

In assay [1], `COc1cccc(NC(=O)c2cccc(N3CCc4nc(N)ncc4C3)c2)c1` [Example 7, 3-(2-amino-7,8-dihydropyrido[4,3-d]pyrimidin-6(5H)-yl)-N-(3-methoxyphenyl)benzamide] displayed an IC50 of 1240 nM.

`CCCCNC(=O)c1cccc(N2CCc3nc(N)ncc3C2)c1` [Example 16, 3-(2-amino-7,8-dihydropyrido[4,3-d]pyrimidin-6(5H)-yl)-N-butylbenzamide]: in assay [1], the half-maximal inhibitory concentration (IC50) is > 10000 nM. For `CCN(CC)C(=O)c1cccc(N2CCc3nc(N)ncc3C2)c1` [Example 21, 3-(2-amino-7,8-dihydropyrido[4,3-d]pyrimidin-6(5H)-yl)-N,N-diethylbenzamide], the IC50 in assay [1] was > 1000 nM.

Regarding `Cc1ccc(NC(=O)Nc2ccc(N3CCc4ccncc4C3)cc2)cc1` [Example 165, 1-[4-(3,4-dihydro-2,7-naphthyridin-2(1H)-yl)phenyl]-3-(4-methylphenyl)urea], the half-maximal inhibitory concentration (IC50) in assay [2] and in assay [1] was > 1000 nM in each case. `CSc1ncc2c(n1)CCN(c1cc(C)cc(C(=O)Nc3cccc(C(C)C)c3)c1)C2` [Example 142, N-(3-isopropylphenyl)-3-methyl-5-[2-(methylthio)-7,8-dihydropyrido[4,3-d]pyrimidin-6(5H)-yl]benzamide]: the IC50 in assay [2] was > 1000 nM. `CN1CCC(Oc2ccc(NC(=O)c3cccc(N4CCc5nc(N)ncc5C4)c3)cc2)CC1` [Example 11, 3-(2-amino-7,8-dihydropyrido[4,3-d]pyrimidin-6(5H)-yl)-N-(4-((1-methylpiperidin-4-yl)oxy)phenyl)benzamide]: the IC50 in assay [1] is > 1000 nM. Same read-out and setting: for `CC(C)c1cccc(NC(=O)c2cccc(N3CCc4nc(N)ncc4C3)c2)c1` [Example 2, 3-(2-amino-7,8-dihydropyrido[4,3-d]pyrimidin-6(5H)-yl)-N-(3-isopropylphenyl)benzamide] the value was 21 nM; for `O=C(Nc1ccccc1)Nc1ccc(N2CCc3ccncc3C2)cc1` [Example 164, 1-[4-(3,4-dihydro-2,7-naphthyridin-2(1H)-yl)phenyl]-3-phenylurea], > 10000 nM; for `CCc1cccc(NC(=O)c2cccc(N3CCc4nc(N)ncc4C3)c2)c1` [Example 9, 3-(2-amino-7,8-dihydropyrido[4,3-d]pyrimidin-6(5H)-yl)-N-(3-ethylphenyl)benzamide], 52 nM. Same read-out and setting: for `Cc1cccc(NC(=O)c2cccc(N3CCc4nc(N)ncc4C3)n2)c1` [Example 37, 6-(2-amino-7,8-dihydropyrido[4,3-d]pyrimidin-6(5H)-yl)-N-(3-methylphenyl)pyridine-2-carboxamide] the value was > 10000 nM; for `CC(C)(C)CCNC(=O)c1cccc(N2CCc3nc(N)ncc3C2)c1` [Example 20, 3-(2-amino-7,8-dihydropyrido[4,3-d]pyrimidin-6(5H)-yl)-N-(3,3-dimethylbutyl)benzamide], 164 nM; for `O=C(Nc1ccc(N2CCc3ccncc3C2)cc1)c1cccc(C(F)(F)F)c1` [Example 162, N-[4-(3,4-dihydro-2,7-naphthyridin-2(1H)-yl)phenyl]-3-(trifluoromethyl)benzamide], > 10000 nM. `CSc1ncc2c(n1)CCN(c1cc(C)cc(C(=O)Nc3cccc(C(F)(F)F)c3)c1)C2` [Example 140, 3-methyl-5-[2-(methylthio)-7,8-dihydropyrido[4,3-d]pyrimidin-6(5H)-yl]-N-[3-(trifluoromethyl)phenyl]benzamide]: the half-inhibitory concentration (IC50) in assay [2] is > 1000 nM.

`Nc1ncc2c(n1)CCN(c1cccc(C(=O)Nc3cccc(C(F)(F)F)c3)c1)C2` [Example 5, 3-(2-amino-7,8-dihydropyrido[4,3-d]pyrimidin-6(5H)-yl)-N-(3-(trifluoromethyl)phenyl)benzamide] came in with an IC50 in assay [1] of 26 nM.

The compound `CC(C)c1ccc(NC(=O)c2cccc(N3CCc4nc(N)ncc4C3)c2)cc1` [Example 12, 3-(2-amino-7,8-dihydropyrido[4,3-d]pyrimidin-6(5H)-yl)-N-(4-isopropylphenyl)benzamide] yielded an IC50 in assay [1] of 24 nM.

With `Nc1ncc2c(n1)CCN(c1cccc(C(=O)NC3CCCC3)c1)C2` [Example 19, 3-(2-amino-7,8-dihydropyrido[4,3-d]pyrimidin-6(5H)-yl)-N-cyclopentylbenzamide], in assay [1], the 50% inhibitory concentration (IC50) was > 10000 nM.
